Source: PMC6755814, “Crystal structure of the first eukaryotic bilin reductase GtPEBB reveals a flipped binding mode of dihydrobiliverdin” (The Journal of Biological Chemistry, 2019)
Blank lines part the entries; values can stand above or below the compound they belong to.

Columns and labels:
mGtPEBB [1] = target: T1, mGtPEBB (Guillardia theta, UniProt L1IWQ9, R298M); assay: UV/Vis spectral shift; anaerobic reductase assay with HPLC; assay type: biochemical; conditions: pH 7.5, ferredoxin from Synechococcus sp. PCC7002, NADPH regenerating system; product DHBV, low efficiency
T1 construct: gene GUITHDRAFT_96430; GST fusion in E. coli, cut by TEV protease, leaving N-terminal Gly-Gly; single-domain protein; codon-optimized gene

mGtPEBB [2] = target: T2, mGtPEBB (Guillardia theta, UniProt L1IWQ9); assay: UV/Vis spectral shift; HPLC of products; assay type: binding; conditions: pH 7.5, 10 μM protein, 10 μM bilin; unnatural ligand, not reduced
T2 construct: gene GUITHDRAFT_96430; GST fusion in E. coli, cut by TEV protease, leaving N-terminal Gly-Gly; single-domain protein; codon-optimized gene
T2 sequence (L1IWQ9 84-356): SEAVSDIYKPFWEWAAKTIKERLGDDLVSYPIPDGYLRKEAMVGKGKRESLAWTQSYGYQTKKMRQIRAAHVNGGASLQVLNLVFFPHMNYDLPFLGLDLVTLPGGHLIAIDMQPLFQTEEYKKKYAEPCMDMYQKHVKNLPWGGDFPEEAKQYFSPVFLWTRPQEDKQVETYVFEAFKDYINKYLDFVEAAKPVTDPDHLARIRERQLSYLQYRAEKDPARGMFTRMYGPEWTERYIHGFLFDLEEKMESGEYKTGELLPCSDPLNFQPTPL

mGtPEBB [3] = target: T3, mGtPEBB (Guillardia theta, UniProt L1IWQ9, R298S); assay: UV/Vis spectral shift; anaerobic reductase assay with HPLC; assay type: binding; conditions: pH 7.5, ferredoxin from Synechococcus sp. PCC7002, NADPH regenerating system
T3 construct: gene GUITHDRAFT_96430; GST fusion in E. coli, cut by TEV protease, leaving N-terminal Gly-Gly; single-domain protein; codon-optimized gene

mGtPEBB [4] = target: T1, mGtPEBB; assay: as above; assay type: binding; conditions: pH 7.5, ferredoxin from Synechococcus sp. PCC7002, NADPH regenerating system
mGtPEBB [5] = target: T4, mGtPEBB (Guillardia theta, UniProt L1IWQ9, R298L); assay: as above; assay type: binding; conditions: pH 7.5, ferredoxin from Synechococcus sp. PCC7002, NADPH regenerating system
T4 construct: gene GUITHDRAFT_96430; GST fusion in E. coli, cut by TEV protease, leaving N-terminal Gly-Gly; single-domain protein; codon-optimized gene

mGtPEBB [6] = target: T5, mGtPEBB (Guillardia theta, UniProt L1IWQ9, D302N); assay: as above; assay type: binding; conditions: pH 7.5, ferredoxin from Synechococcus sp. PCC7002, NADPH regenerating system
T5 construct: gene GUITHDRAFT_96430; GST fusion in E. coli, cut by TEV protease, leaving N-terminal Gly-Gly; single-domain protein; codon-optimized gene

mGtPEBB [7] = target: T6, mGtPEBB (Guillardia theta, UniProt L1IWQ9, D182N); assay: as above; assay type: binding; conditions: pH 7.5, ferredoxin from Synechococcus sp. PCC7002, NADPH regenerating system
T6 construct: gene GUITHDRAFT_96430; GST fusion in E. coli, cut by TEV protease, leaving N-terminal Gly-Gly; single-domain protein; codon-optimized gene

mGtPEBB [8] = target: T2, mGtPEBB; assay: X-ray crystal structure of complex, […] Å; UV/Vis spectral shift; anaerobic reductase assay with HPLC; assay type: binding; conditions: co-crystal at pH 8.5; assay pH 7.5 with ferredoxin from Synechococcus sp. PCC7002, NADPH regenerating system; active site, flipped orientation
mGtPEBB [9] = target: T7, mGtPEBB (Guillardia theta, UniProt L1IWQ9, R298K); assay: UV/Vis spectral shift; anaerobic reductase assay with HPLC; assay type: biochemical; conditions: pH 7.5, ferredoxin from Synechococcus sp. PCC7002, NADPH regenerating system
T7 construct: gene GUITHDRAFT_96430; GST fusion in E. coli, cut by TEV protease, leaving N-terminal Gly-Gly; single-domain protein; codon-optimized gene

mGtPEBB [10] = target: T8, mGtPEBB (Guillardia theta, UniProt L1IWQ9, R298A); assay: as above; assay type: biochemical; conditions: pH 7.5, ferredoxin from Synechococcus sp. PCC7002, NADPH regenerating system; trace conversion only
T8 construct: gene GUITHDRAFT_96430; GST fusion in E. coli, cut by TEV protease, leaving N-terminal Gly-Gly; single-domain protein; codon-optimized gene
T8 sequence (L1IWQ9 entry or part of it R298A): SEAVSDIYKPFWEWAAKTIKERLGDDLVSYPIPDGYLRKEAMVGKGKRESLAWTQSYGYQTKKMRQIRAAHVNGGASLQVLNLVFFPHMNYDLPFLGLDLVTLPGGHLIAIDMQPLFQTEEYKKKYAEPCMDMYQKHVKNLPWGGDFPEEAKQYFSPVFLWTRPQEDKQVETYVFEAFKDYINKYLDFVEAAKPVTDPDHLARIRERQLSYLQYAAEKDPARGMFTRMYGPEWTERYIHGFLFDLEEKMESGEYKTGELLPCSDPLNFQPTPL

T1 sequence (L1IWQ9 entry or part of it R298M): as the sequence (L1IWQ9 entry or part of it R298A) above, with A215M counted along it
T7 sequence (L1IWQ9 entry or part of it R298K): as the sequence (L1IWQ9 entry or part of it R298A) above, with A215K counted along it
T6 sequence (L1IWQ9 entry or part of it D182N): as the sequence (L1IWQ9 entry or part of it R298A) above, with D99N, A215R counted along it
T5 sequence (L1IWQ9 entry or part of it D302N): as the sequence (L1IWQ9 entry or part of it R298A) above, with A215R, D219N counted along it
T4 sequence (L1IWQ9 entry or part of it R298L): as the sequence (L1IWQ9 entry or part of it R298A) above, with A215L counted along it
T3 sequence (L1IWQ9 entry or part of it R298S): as the sequence (L1IWQ9 entry or part of it R298A) above, with A215S counted along it

UV/Vis spectral shift; anaerobic reductase assay with HPLC (mGtPEBB [1]): R215M was able to convert BV to DHBV
SMILES: C=CC1=C(C)C(=Cc2[nH]c(C=C3N=C(C=C4NC(=O)C(C)=C4C=C)C(C)=C3CCC(=O)O)c(CCC(=O)O)c2C)NC1=O [BV]
UV/Vis spectral shift; HPLC of products (mGtPEBB [2]): indicated binding of this unnatural substrate

SMILES: C=CC1=C(C)C(=O)NC1=CC1=NC(=Cc2[nH]c(CC3NC(=O)C(C=C)=C3C)c(C)c2CCC(=O)O)C(CCC(=O)O)=C1C (stereo not shown) [DHBV]
UV/Vis spectral shift; anaerobic reductase assay with HPLC (mGtPEBB [3]): both R215S and R215M showed binding spectra similar to WT
UV/Vis spectral shift; anaerobic reductase assay with HPLC (mGtPEBB [4]): both R215S and R215M showed binding spectra similar to WT
UV/Vis spectral shift; anaerobic reductase assay with HPLC (mGtPEBB [5]): the binding spectrum of R215L was very similar to the WT spectrum
UV/Vis spectral shift; anaerobic reductase assay with HPLC (mGtPEBB [6]): caused a blue shift of the maximum of the DHBV-binding spectrum
UV/Vis spectral shift; anaerobic reductase assay with HPLC (mGtPEBB [7]): caused a blue shift of the maximum of the DHBV-binding spectrum
X-ray crystal structure of complex, 1.65 Å; UV/Vis spectral shift; anaerobic red (mGtPEBB [8]): Both chains showed clear density for DHBV already after molecular replacement
UV/Vis spectral shift; anaerobic reductase assay with HPLC (mGtPEBB [9]): Replacing Arg-215 with lysine maintained side chain charge and size to some extent
UV/Vis spectral shift; anaerobic reductase assay with HPLC (mGtPEBB [10]): only trace amounts of PEB were detected for R215A
